# Assay results taken from patent US12297163B2, “Glycerol derivative, preparation method therefor, and immunomodulator comprising same as effective ingredient” (ENZYCHEM LIFESCIENCES CORPORATION, priority 2018, dated 2025).
# Legend:
# STAT3 [1] = test: IL-6-induced STAT3 activity, SEAP expression in HEK-Blue IL-6 cells; assay type: cell-based; conditions: for STAT3 activity SEAP expression(%) (average ± deviation): negative control = 100
# Description: Two experiments were conducted as a method of confirming STAT3 activity. First, HEK-Blue™ IL-6 cells were used to confirm the degree of activity by STAT3-induced SEAP (secreted embryonic alkaline phosphatase) expression. Second, this is a method to check the degree of STAT3 activity by injecting the pGL4.47 [luc2P/SIE/Hygro] vector containing the sis-inducible element that binds to STAT3 into RAW264.7 cells. Table 4 below confirmed the STAT3 activity inhibitory ability of the derivative compound of the present invention using the first method.
# In DMEM (Hyclone, Thermo Scientific) medium to which 10% Fetal Bovine Serum was added, HEK-Blue™ IL-6 cells were cultured at a concentration of 1×10^5 cells/ml, and the cells were maintained in a 5% CO2 humidified incubator at 37° C., and cultured. The cultured HEK-Blue™ IL-6 cells were inoculated by 1×10^5 cells/ml, and treat with a glycerol derivative compounds of the type shown in Table 3 below in the culture solution for 1 hour, and then IL-6 (5 ng/ml) was further incubated for 24 hours for STAT3 activity. Thereafter, the culture supernatant was collected for each well and centrifuged (at 3000 rpm, 5 minutes) to recover the supernatant. The SEAP expression level in the recovered supernatant was mixed with Quanti blue reagent and the supernatant at a ratio of 1:10 and left at 37° C. for about 30 minutes. Then, the SEAP concentration was confirmed at 650 nm wavelength using a spectrophotometer, and the results thereof are shown in Table 4 below.
# HL-60 cells = test: Migration of HL-60 cell line using Transwell; assay type: cell-based, human
# Description: Then, the culture solution was treated with a glycerol derivative compounds of the type shown in Table 7 below for 1 hour and then was treated with Gemcitabine (2 μg/ml) of a cell stimulator, and subsequent further incubation was conducted for 24 hours. Thereafter 1.5 ml of the culture supernatant was collected for each well and centrifuged (at 3000 rpm, 5 minutes) to recover the supernatant. […] The day before Transmigration assay was carried out, a 1× Lamin I solution was treated in the upper Invasion Chamber and coated. […] Thereafter the upper chamber was removed, and the cells were attached to the bottom of the lower chamber by a centrifuge, and then the supernatant was removed. Cell dissociation/Calcein-AM solution was added and reacted for 1 hour. Then, the value obtained using a fluorescence spectroscopy was calculated by converting the number of cells.
# IL-4 = test: PKC activator-induced IL-4 secretion in EL-4 cells (ELISA); assay type: cell-based, mouse; conditions: Table 11, sample 100 μg/ml for 2 hours, then PKC activator, 18 hours
# Description: Thereafter 0.5 ml of the culture supernatant was collected for each well and centrifuged (at 3000 rpm, 5 minutes) to recover the supernatant. […] Thereafter, the secondary HRP conjugated antibody was reacted at room temperature for 30 minutes, washed three times with a washing buffer solution, and treated with 50 μl of stop solution for each well, and then the optical density was measured at 450 nm with an ELISA microplate leader.
# CXCL8 (IL-8) = CXCL8 (IL-8) expression in Gemcitabine-stimulated THP-1 cells (ELISA); assay type: cell-based, human
# Description: Thereafter 1.5 ml of the culture supernatant was collected for each well and centrifuged (at 3000 rpm, 5 minutes) to recover the supernatant.
# STAT3 [2] = test: STAT3 activity, pGL4.47 [luc2P/SIE/Hygro] luciferase reporter in RAW264.7 cells; assay type: cell-based, mouse
# Description: Thereafter, the culture supernatant was removed for each well, and the remaining cells were lysed with a cell lysis buffer, and then cell lysate was recovered. 90 μl of luciferase reagent was mixed with 10 μl of the recovered cell lysate, and the degree of fluorescence was confirmed using a luminometer.
# STAT6 = test: IL-4-induced STAT6 activity, pGL4-STAT6 luciferase reporter in A549 cells; assay type: cell-based
# Description: In DMEM (Dulbecco Modified Eagle Medium, Hyclone, Thermo Scientific) medium to which 10% Fetal Bovine Serum was added, A549 cells were subcultured at a concentration of 1×10^5 cells/ml, and the cells were maintained in a 5% CO2 humidified incubator at 37° C., and cultured. The cultured A549 cells were inoculated into a 48 well plate by 1×10^5 cells/ml and stabilized for 18 hours. Thereafter, pGL4-STAT6 reporter vector containing a STAT6 binding promoter portion was mixed with Attractene to induce complex formation at room temperature for 15 minutes. This complex was treated with the cells and then further incubated for 24 hours. Thereafter, the culture solution was treated with a glycerol derivative compounds of the type shown in Table 8 and Table 9 below for 1 hour in the culture solution, and then IL-4 (2 ng/ml or 10 ng/ml) was further incubated for 20 hours for STAT6 activity. Thereafter, the culture supernatant was removed for each well, and the remaining cells were lysed with a cell lysis buffer, and then cell lysate was recovered. 90 μl of luciferase reagent was mixed with 10 μl of the recovered cell lysate, and the degree of fluorescence was confirmed using a luminometer.
# IL-6 = test: LPS-induced IL-6 secretion in RAW264.7 cells (ELISA); assay type: cell-based, mouse; conditions: for IL-6 concentration (average ± deviation): then LPS 1 μg/ml, 24 hours
# Description: In DMEM (Hyclone, Thermo Scientific) medium to which 10% Fetal Bovine Serum was added, RAW264.7 cells, a mouse macrophage family, were suspended at a concentration of 1×10^5 cells/ml, and the cells were maintained in a 5% CO2 humidified incubator at 37° C., and cultured. The cultured RAW264.7 cells were inoculated into a 48 well plate by 5×10^4 cells/ml and stabilized for 15 hours. Then, the culture solution was treated with a glycerol derivative compounds of the type shown in Table 2 and 3 below for 1 hour and then was treated with 1 μg/ml of Lipopolysaccaride (LPS) of a cell stimulator, and subsequent further incubation was conducted for 24 hours. Thereafter 0.5 ml of the culture supernatant was collected for each well and centrifuged (at 3000 rpm, 5 minutes) to recover the supernatant. The IL-6 level in the recovered supernatant was measured according to the manual provided by the Mouse IL-6 ELISA set (BD Biosciences). The day before ELISA was carried out, the IL-6 capture antibody was diluted in phosphate buffered saline, coated on a microwell, and then stored at 4° C. overnight. Each well was washed three times with a washing buffer solution and then blocked with 2% Bovine Serum Albumin (BSA) for 1 hour at room temperature. After washing with buffer solution three times, 100 μl of sample was dispensed into each well and left at room temperature for 2 hours. Detection antibody which was washed 3 times with washing buffer solution and diluted was dispensed into each well and allowed to react at room temperature for 1 hour and left at room temperature for 1 hour. Thereafter, the secondary HRP conjugated antibody was reacted at room temperature for 30 minutes, washed three times with a washing buffer solution, and treated with 50 μl of stop solution for each well, and then the optical density was measured at 450 nm with an ELISA microplate leader.
molecule,measurement,setting,value
IL-6: IL-6 cytokine used to induce STAT3 activity,STAT3 activity SEAP expression(%) (average ± deviation),STAT3 [1]; IL-6 5 ng/ml alone,228.8 ± 17.0%
Nc1ccn([C@@H]2O[C@H](CO)[C@@H](O)C2(F)F)c(=O)n1 [Gemcitabine],increase of neutrophil cell migration compared to the negative control group,HL-60 cells; Gemcitabine-treated THP-1 cells,increased by about twice
"CCCCC/C=C\C/C=C\CCCCCCCC(=O)OC(COC(C)=O)COC(=O)CCCCCCCCCCCCCCC (stereo not drawn) [EC-18, 1-palmitoyl-2-linoleoyl-3-acetylglycerol]",IL-4 concentration (average ± deviation),IL-4,189.8 ± 38.5 pg/µL
same,"reduction of HL-60 cell migration, result in words","HL-60 cells; Transwell, comparison with negative control group or EC-18 (PLAG)",reduced to a degree similar to that of the negative control group
same,reduction of CXCL8 expression,CXCL8 (IL-8),about 20%
same,decrease of STAT3 activity compared to the IL-6-treated group,STAT3 [1],about 25%
same,STAT3 activity SEAP expression(%) (average ± deviation),"STAT3 [1]; sample 100 μg/ml for 1 hour, then IL-6 5 ng/ml, 24 hours",173.0 ± 7.9%
same,decrease of STAT3 activity,STAT3 [2]; LPS-treated,about 50%
same,STAT3 activity_Luciferase activity (average ± deviation),"STAT3 [2]; sample 100 μg/ml for 1 hour, then LPS 1 μg/ml, 18 hours, negative control = 100.00",393.64 ± 46.12
same,reduction of STAT6 activity,STAT6; IL-4-treated,about 50%
same,STAT6 activity_Luciferase activity (average ± deviation),"STAT6; Table 9, sample 100 μg/ml for 1 hour, then IL-4 10 ng/ml, 20 hours",1281.5 ± 26.1
same,decrease of IL-6 expression/secretion compared to the LPS-treated group,IL-6; LPS-stimulated,about 30%
same,IL-6 concentration (average ± deviation),"IL-6; Table 2, sample 100 μg/ml for 1 hour",0.194 ± 0.011 ng/mL
same,IL-6 concentration (average ± deviation),"IL-6; Table 3, sample 100 μg/ml for 1 hour",1.159 ± 0.036 ng/mL
"IL-4: IL-4 used to induce STAT6 activity in A549 cells (protein, UniProt P05112 25-153, looked up) Interleukin-4: HKCDITLQEIIKTLNSLTEQKTLCTELTVTDIFAASKNTTEKETFCRAATVLRQFYSHHEKDTRCLGATAQQFHRHKQLIRFLKRLDRNLWGLAGLNSCPVKEANQSTLENFLERLKTIMREKYSKCSS",STAT6 activity_Luciferase activity (average ± deviation),"STAT6; Table 9, IL-4 alone, concentration printed 10",2134.5 ± 17.6
